According to US10077264B2, “Derivatives and methods of treating hepatitis B infections” (Novira Therapeutics, Inc., priority 2014, dated 2018):

Tested on: HBV replication in HepG2.2.15 cells
Experiment: HBV replication inhibition assay (BDNA assay)
Format: cell-based
Settings: HepG2.2.15 cells, 6 days, encapsidated HBV DNA in supernatant; read-out: Activity in BDNA-assay (EC50)
Excerpt: HBV replication inhibition by the compounds of this invention could be determined in cells infected or transfected with HBV, or cells with stably integrated HBV, such as HepG2.2.15 cells (Sells et al. 1987). In this example, HepG2.2.15 cells were maintained in cell culture medium containing 10% fetal bovine serum (FBS), Geneticin, L-glutamine, penicillin and streptomycin. HepG2.2.15 cells could be seeded in 96-well plates at a density of 40,000 cells/well and be treated with serially diluted compounds at a final DMSO concentration of 0.5% either alone or in combination by adding drugs in a checker box format. Cells were incubated with compounds for three days, after which medium was removed and fresh medium containing compounds was added to cells and incubated for another three days. At day 6, supernatant was removed and treated with DNase at 37° C. for 60 minutes, followed by enzyme inactivation at 75° C. for 15 minutes. Encapsidated HBV DNA was released from the virions and covalently linked HBV polymerase by incubating in lysis buffer (Affymetrix QS0010) containing […] proteinase K at 50° C. for 40 minutes. HBV DNA was denatured by addition of 0.2 M NaOH and detected using a branched DNA (BDNA) QuantiGene assay kit according to manufacturer recommendation (Affymetrix). HBV DNA levels could also be quantified using qPCR, based on amplification of encapsidated HBV DNA extraction with QuickExtraction Solution (Epicentre Biotechnologies) and amplification of HBV DNA using HBV specific PCR probes that can hybridize to HBV DNA and a fluorescently labeled probe for quantitation. In addition, cell viability of HepG2.2.15 cells incubated with test compounds alone or in combination was determined by using CellTitre-Glo reagent according to the manufacturer protocol (Promega). The mean background signal from wells containing only culture medium was subtracted from all other samples, and percent inhibition at each compound concentration was calculated by normalizing to signals from HepG2.2.15 cells treated with 0.5% DMSO using equation E1. % inhibition=(DMSOave−Xi)/DMSOave×100% E1: • where DMSOave is the mean signal calculated from the wells that were treated with DMSO control (0% inhibition control) and Xi is the signal measured from the individual wells. EC50 values, effective concentrations that achieved 50% inhibitory effect, were determined by non-linear fitting using Graphpad Prism software (San Diego, Calif.) and equation E2 Y=Ymin+(Ymax−Ymin)/(1+10(Log EC50−X)×HillSlope) E2: • where Y represents percent inhibition values and X represents the logarithm of compound concentrations.
Selected compounds of the invention were assayed in the HBV replication assay (BDNA assay), as described above and a representative group of these active compounds is shown in Table 3.

Structure (SMILES) | EC50 [nM]
CC1Cc2[nH]nc(-c3cscn3)c2CN1C(=O)Nc1cccc(Br)c1F (centres unmarked) [920 E2] | 10 to 100
CC1Cc2[nH]nc(-c3cscn3)c2CN1C(=O)Nc1cccc(Br)c1 (centres unmarked) [918 E2] | 10 to 100
CC1Cc2[nH]nc(-c3cscn3)c2CN1C(=O)Nc1ccc(F)c(Br)c1 (centres unmarked) [919 E2] | 10 to 100
Cc1cccc(NC(=O)N2Cc3c(-c4cscn4)n[nH]c3CC2C)c1 (centres unmarked) [923 E2] | 10 to 100
CC1Cc2[nH]nc(-c3ccccc3)c2CN1C(=O)Nc1cccc(Cl)c1 (single isomer, unassigned) [317 (E1), N-(3-chlorophenyl)-6-methyl-3-phenyl-1,4,6,7-tetrahydropyrazolo[4,3-c]pyridine-5-carboxamide] | 10 to 100
Cc1cc(NC(=O)N2Cc3c(-c4cscn4)n[nH]c3CC2C)ccc1F (centres unmarked) [924 E2] | 10 to 100

Same assay, conditions: Hepatitis B virus, 144 h; HepG2.2.15 cells, 10 μM, 6 days, encapsidated HBV DNA in supernatant; read-out: Activity in BDNA-assay (activity at 10 μM)

Structure (SMILES) | inhibition at 10 µM [%]
O=C(Nc1cnc(Cl)c(Cl)c1)N1CCc2[nH]nc(-c3ccccc3)c2C1 [Compound 226] | > 50
O=C(CCc1ccccc1)N1CCc2[nH]nc(-c3ccccc3)c2C1 [Compound 027, 3-phenyl-1-(3-phenyl-1,4,6,7-tetrahydropyrazolo[4,3-c]pyridin-5-yl)propan-1-one] | > 50
N#Cc1ccc(OCC(=O)N2CCc3[nH]nc(-c4ccccc4)c3C2)cc1 [Compound 156] | > 50
O=C(COc1cccc(C(F)(F)F)c1)N1CCc2[nH]nc(-c3ccccc3)c2C1 [Compound 164] | > 50
O=C(COc1cncnc1)N1CCc2[nH]nc(-c3ccccc3)c2C1 [Compound 001] | > 50
CC(OC(=O)N1CCc2[nH]nc(-c3ccccc3)c2C1)c1ccccc1 (centres unmarked) [Compound 016, 1-phenylethyl 3-phenyl-1,4,6,7-tetrahydropyrazolo[4,3-c]pyridine-5-carboxylate] | > 50
O=C(COc1ccc(Cl)cc1)N1CCc2[nH]nc(-c3ccccc3)c2C1 [Compound 150] | > 50
O=C(COc1ccccc1F)N1CCc2[nH]nc(-c3ccccc3)c2C1 [Compound 142] | > 50
O=C(Nc1ccc(Br)c(Cl)c1)N1CCc2[nH]nc(-c3ccccc3)c2C1 [Compound 204] | > 50
O=C(C1C[C@H]1c1ccccc1)N1CCc2[nH]nc(-c3ccccc3)c2C1 (stereo in doubt) [Compound 030, (2-phenylcyclopropyl)-(3-phenyl-2,4,6,7-tetrahydropyrazolo[4,3-c]pyridin-5-yl)methanone] | > 50
O=C(Nc1ccc(Cl)cc1)N1CCc2[nH]nc(-c3ccccc3)c2C1 [Compound 113] | > 50
N#Cc1ccc(Cl)cc1NC(=O)N1CCc2[nH]nc(-c3ccccc3)c2C1 [Compound 201] | > 50
O=C(COc1ccccc1C(F)(F)F)N1CCc2[nH]nc(-c3ccccc3)c2C1 [Compound 163] | > 50
O=C(Nc1cccc(Cl)c1)N1CCc2[nH]nc(-c3cccc(F)c3)c2C1 [Compound 277, N-(3-chlorophenyl)-3-(3-fluorophenyl)-1,4,6,7-tetrahydropyrazolo[4,3-c]pyridine-5-carboxamide] | > 50
N#Cc1ccccc1OCC(=O)N1CCc2[nH]nc(-c3ccccc3)c2C1 [Compound 154] | > 50

Same assay, conditions: Hepatitis B virus, HepG2.2.15, 144 h, HepG2.2.15 cells, 6 days, encapsidated HBV DNA in supernatant; read-out: Activity in BDNA-assay (EC50)

Structure (SMILES) | EC50 [nM]
N#Cc1cccc(NC(=O)N2CCc3[nH]nc(-c4ccccc4)c3C2)c1F [Compound 559] | 10 to 100
O=C(Nc1ccc(F)c(Cl)c1F)N1CCc2[nH]nc(-c3ccccc3)c2C1 [Compound 205] | 100 to 500
Cn1ccc(-c2n[nH]c3c2CN(C(=O)Nc2cccc(Cl)c2)CC3)n1 [Compound 555] | 100 to 500
O=C(Nc1cccc(Cl)c1Cl)N1CCc2[nH]nc(-c3ccccc3)c2C1 [Compound 190] | 500 to 1000
O=C(Nc1cccc(Cl)c1)N1CCc2[nH]nc(-c3ccc(F)cc3)c2C1 [Compound 278, N-(3-chlorophenyl)-3-(4-fluorophenyl)-1,4,6,7-tetrahydropyrazolo[4,3-c]pyridine-5-carboxamide] | 100 to 500
Cn1cc(-c2n[nH]c3c2CN(C(=O)Nc2cccc(Cl)c2)CC3)cn1 [Compound 495, N-(3-chlorophenyl)-3-(1-methylpyrazol-4-yl)-1,4,6,7-tetrahydropyrazolo[4,3-c]pyridine-5-carboxamide] | 1000 to 1500
Cc1ccccc1-c1n[nH]c2c1CN(C(=O)Nc1cccc(Cl)c1)CC2 [Compound 279, N-(3-chlorophenyl)-3-(o-tolyl)-1,4,6,7-tetrahydropyrazolo[4,3-c]pyridine-5-carboxamide] | 100 to 500
O=C(Nc1cccc(Cl)c1)N1CCc2[nH]nc(-c3cccnn3)c2C1 [Compound 290] | 10 to 100
CC(Oc1ccccc1)C(=O)N1CCc2[nH]nc(-c3ccccc3)c2C1 (centres unmarked) [Compound 014, 2-phenoxy-1-(3-phenyl-1,4,6,7-tetrahydropyrazolo[4,3-c]pyridin-5-yl)propan-1-one] | 1000 to 1500
N#Cc1cc(NC(=O)N2CCc3[nH]nc(-c4ccccc4)c3C2)ccc1F [Compound 560] | 10 to 100
O=C(Nc1cccc(Cl)c1)N1CCc2[nH]nc(-c3ncccn3)c2C1 [Compound 289, N-(3-chlorophenyl)-3-pyrimidin-2-yl-1,4,6,7-tetrahydropyrazolo[4,3-c]pyridine-5-carboxamide] | 10 to 100
CC1CCCC(NC(=O)N2CCc3[nH]nc(-c4ccccc4)c3C2)C1 (centres unmarked) [Compound 436] | 500 to 1000
CC1Cc2[nH]nc(-c3cscn3)c2CN1C(=O)Nc1ccc(F)c(Br)c1 (centres unmarked) [919 E1] | 10 to 100
Cc1cccc(-c2n[nH]c3c2CN(C(=O)Nc2cccc(Cl)c2)CC3)c1 [Compound 280, N-(3-chlorophenyl)-3-(m-tolyl)-1,4,6,7-tetrahydropyrazolo[4,3-c]pyridine-5-carboxamide] | 100 to 500
Cn1nccc1-c1n[nH]c2c1CN(C(=O)Nc1cccc(Cl)c1)CC2 [Compound 496] | 100 to 500
O=C(Nc1cccc(Cl)c1)N1CCc2[nH]nc(-c3ccccc3)c2C1 [Compound 112] | 10 to 100
O=C(Nc1cccc(Cl)c1)N1CCc2[nH]nc(-c3cccnc3F)c2C1 [Compound 472, N-(3-chlorophenyl)-3-(2-fluoro-3-pyridyl)-1,4,6,7-tetrahydropyrazolo[4,3-c]pyridine-5-carboxamide] | 100 to 500
O=C(Nc1cc(Cl)ccc1Cl)N1CCc2[nH]nc(-c3ccccc3)c2C1 [Compound 191] | 500 to 1000
O=C(Nc1cccc(Cl)c1)N1CCc2c(ncn2-c2ccccc2)C1 [Compound 583, N-(3-chlorophenyl)-1-phenyl-6,7-dihydro-4H-imidazo[4,5-c]pyridine-5-carboxamide] | 1500 to 5000
O=C(Nc1cccc(C2CC2)c1)N1CCc2[nH]nc(-c3ccccc3)c2C1 [Compound 556] | 100 to 500
O=C(Nc1cccc(Cl)c1)N1CCc2[nH]nc(-c3ccccc3F)c2C1 [Compound 276, N-(3-chlorophenyl)-3-(2-fluorophenyl)-1,4,6,7-tetrahydropyrazolo[4,3-c]pyridine-5-carboxamide] | 100 to 500
CC1Cc2[nH]nc(-c3cscn3)c2CN1C(=O)Nc1cccc(Br)c1 (centres unmarked) [918 E1] | 10 to 100

Same assay, conditions: Hepatitis B virus, HepG2.2.15, 144 h, read-out: Activity in BDNA-assay (EC50)

Structure (SMILES) | EC50 [nM]
O=C(Nc1ccccc1)N1CCc2[nH]nc(-c3ccccc3)c2C1 [Compound 022, N,3-diphenyl-1,4,6,7-tetrahydropyrazolo[4,3-c]pyridine-5-carboxamide] | 100 to 500
